From patent US10858335B2 (Rigel Pharmaceuticals, Inc., priority 2014, dated 2020) come the findings set out here.

Molecules are shown by their SMILES. Structures can show the parent of a compound that is named as a salt.

The experiment concerns GDF8 signaling (p-SMAD-3 (Ser423/425)). The experiment can be described thus: AlphaScreen SureFire SMAD3 (p-Ser423/425) assay, GDF8-stimulated cells (GDF pSMAD). The experiment is classed as cell-based. To be noted: Mus musculus, MPC-11, MPC11; GDF8-stimulated; p-SMAD3 AlphaScreen; read-out: GDF pSMAD (MPC11) (inhibition of GDF8 signaling).

`Cc1cc(-c2ncccc2-c2ccc3ncc(C(=O)OC[C@H](Cc4c[nH]c5ccccc45)NC(=O)OC(C)(C)C)n3c2)ccc1F` [compound 614, (S)-2-((tert-Butoxycarbonyl)amino)-3-(1H-indol-3-yl)propyl 6-(2-(4-fluoro-3-methylphenyl)pyridin-3-yl)imidazo[1,2-a]pyridine-3-carboxylate]: the IC50 was 5560 nM.
The same measure for `Cc1cc(-c2ncccc2-c2ccc3ncc(C(=O)OC[C@@H](N)Cc4c[nH]c5ccccc45)n3c2)ccc1F` [compound 615, (S)-2-Amino-3-(1H-indol-3-yl)propyl 6-(2-(4-fluoro-3-methylphenyl)pyridin-3-yl)imidazo[1,2-a]pyridine-3-carboxylate formic acid salt]: 2130 nM; for `Cc1cc(-c2ncccc2-c2ccc3ncc(C(=O)Nc4cccc(S(N)(=O)=O)c4)n3c2)ccc1F` [compound 616, 6-(2-(4-Fluoro-3-methylphenyl)pyridin-3-yl)-N-(3-sulfamoylphenyl)imidazo[1,2-a]pyridine-3-carboxamide]: 2180 nM.
For `Cc1cc(-c2ncccc2-c2ccc3ncc(C(=O)Nc4ccc(S(N)(=O)=O)cc4)n3c2)ccc1F` [compound 617, 6-(2-(4-Fluoro-3-methylphenyl)pyridin-3-yl)-N-(4-sulfamoylphenyl)imidazo[1,2-a]pyridine-3-carboxamide] the value was 10800 nM.
As for `Cc1cc(-c2ncccc2-c2ccc3ncc(C(=O)Nc4ccc(C(N)=O)cc4)n3c2)ccc1F` [compound 618, N-(4-Carbamoylphenyl)-6-(2-(4-fluoro-3-methylphenyl)pyridin-3-yl)imidazo[1,2-a]pyridine-3-carboxamide], the IC50 amounted to 1120 nM.
For `Cc1cc(-c2ncccc2-c2ccc3ncc(C(=O)Nc4cccc(C(N)=O)c4)n3c2)ccc1F` [compound 619, N-(3-Carbamoylphenyl)-6-(2-(4-fluoro-3-methylphenyl)pyridin-3-yl)imidazo[1,2-a]pyridine-3-carboxamide] the value was 544 nM; for `N#Cc1cnc2ccc(-c3cccnc3-c3cccc(F)c3)cn12` [compound 621, 6-(2-(3-Fluorophenyl)pyridin-3-yl)imidazo[1,2-a]pyridine-3-carbonitrile], 3930 nM.
For `N#Cc1cnc2ccc(-c3cccnc3-c3ccc(F)c(F)c3)cn12` [compound 622, 6-(2-(3,4-Difluorophenyl)pyridin-3-yl)imidazo[1,2-a]pyridine-3-carbonitrile] the value was 3630 nM.
The same measure for `N#Cc1cnc2ccc(-c3cccnc3-c3ccccc3F)cn12` [compound 623, 6-(2-(2-Fluorophenyl)pyridin-3-yl)imidazo[1,2-a]pyridine-3-carbonitrile]: 6870 nM.
As for `Cc1ccc(F)c(-c2ncccc2-c2ccc3ncc(C#N)n3c2)c1` [compound 624, 6-(2-(2-Fluoro-5-methylphenyl)pyridin-3-yl)imidazo[1,2-a]pyridine-3-carbonitrile], the IC50 was 160 nM.
For the molecule `N#Cc1cnc2ccc(-c3cccnc3-c3ccc(F)cc3)cn12` [compound 625, 6-(2-(4-Fluorophenyl)pyridin-3-yl)imidazo[1,2-a]pyridine-3-carbonitrile], the IC50 was 7790 nM.
The same measure for `COc1cccc(-c2ncccc2-c2ccc3ncc(C#N)n3c2)c1` [compound 626, 6-(2-(3-Methoxyphenyl)pyridin-3-yl)imidazo[1,2-a]pyridine-3-carbonitrile]: 346 nM; for `N#Cc1cccc(-c2ncccc2-c2ccc3ncc(C#N)n3c2)c1` [compound 627, 6-(2-(3-Cyanophenyl)pyridin-3-yl)imidazo[1,2-a]pyridine-3-carbonitrile]: 1260 nM.
As to `N#Cc1cc(-c2ncccc2-c2ccc3ncc(C#N)n3c2)ccc1F` [compound 628, 6-(2-(3-Cyano-4-fluorophenyl)pyridin-3-yl)imidazo[1,2-a]pyridine-3-carbonitrile], the IC50 stood at 1710 nM.
On to `Cc1cc(-c2ncccc2-c2ccc3c(cnn3C(=O)OC[C@H](N)Cc3c[nH]c4ccccc34)c2)ccc1F` [compound 629, (R)-2-Amino-3-(1H-indol-3-yl)propyl 5-(2-(4-fluoro-3-methylphenyl)pyridin-3-yl)-1H-indazole-1-carboxylate TFA salt], for which the IC50 is 132 nM.
Regarding `COc1cc(NC(=O)n2ncc3cc(-c4cccnc4-c4ccc(F)c(C)c4)ccc32)cc(OC)c1OC` [compound 630, 5-(2-(4-Fluoro-3-methylphenyl)pyridin-3-yl)-N-(3,4,5-trimethoxyphenyl)-1H-indazole-1-carboxamide], the IC50 was determined as 4150 nM.
The same measure for `Cc1cc(-c2ncccc2-c2ccc3c(cnn3C(=O)NCCN(C)C)c2)ccc1F` [compound 633, N-(2-(Dimethylamino)ethyl)-5-(2-(4-fluoro-3-methylphenyl)pyridin-3-yl)-1H-indazole-1-carboxamide]: 11300 nM; for `Cc1cc(-c2ncccc2-c2ccc3c(cnn3C(=O)NCCCN(C)C)c2)ccc1F` [compound 634, N-(3-(Dimethylamino)propyl)-5-(2-(4-fluoro-3-methylphenyl)pyridin-3-yl)-1H-indazole-1-carboxamide]: 14800 nM.
The same measure for `Cc1cc(-c2ncccc2-c2ccc3c(cnn3C(=O)NCCN3CCCC3)c2)ccc1F` [compound 636, 5-(2-(4-Fluoro-3-methylphenyl)pyridin-3-yl)-N-(2-(pyrrolidin-1-yl)ethyl)-1H-indazole-1-carboxamide]: 8690 nM.
The same measure for `Cc1cc(-c2ncccc2-c2ccc3c(cnn3C(=O)NCCN)c2)ccc1F` [compound 639, N-(2-Aminoethyl)-5-(2-(4-fluoro-3-methylphenyl)pyridin-3-yl)-1H-indazole-1-carboxamide]: 10600 nM; for `Cc1cc(-c2ncccc2-c2ccc3c(cnn3C(=O)NCCCN)c2)ccc1F` [compound 640, N-(3-Aminopropyl)-5-(2-(4-fluoro-3-methylphenyl)pyridin-3-yl)-1H-indazole-1-carboxamide]: 19200 nM.
Turning to `Cc1cc(-c2ncccc2-c2ccc3ncc(C(=O)NCC4CCN(C)CC4)n3c2)ccc1F` [compound 651, 6-(2-(4-Fluoro-3-methylphenyl)pyridin-3-yl)-N-((1-methylpiperidin-4-yl)methyl)imidazo[1,2-a]pyridine-3-carboxamide], the IC50 stood at 1180 nM.
The same measure for `Cc1cc(-c2ncccc2-c2ccc3ncc(C(=O)NC4CCNCC4)n3c2)ccc1F` [compound 652, 6-(2-(4-Fluoro-3-methylphenyl)pyridin-3-yl)-N-(piperidin-4-yl)imidazo[1,2-a]pyridine-3-carboxamide]: 3780 nM.
For `Cc1cc(-c2ncccc2-c2ccc3ncc(C(=O)NCCCn4ccnc4)n3c2)ccc1F` [compound 653, N-(3-(1H-Imidazol-1-yl)propyl)-6-(2-(4-fluoro-3-methylphenyl)pyridin-3-yl)imidazo[1,2-a]pyridine-3-carboxamide] the value was 1040 nM; for `Cc1cc(-c2ncccc2-c2ccc3ncc(C(=O)Nc4ccncc4)n3c2)ccc1F` [compound 654, 6-(2-(4-Fluoro-3-methylphenyl)pyridin-3-yl)-N-(pyridin-4-yl)imidazo[1,2-a]pyridine-3-carboxamide], 553 nM.
For `Cc1cc(-c2ncccc2-c2ccn3ncc(C(=O)NC4CCN(C)CC4)c3c2)ccc1F` [compound 655, 5-(2-(4-Fluoro-3-methylphenyl)pyridin-3-yl)-N-(1-methylpiperidin-4-yl)pyrazolo[1,5-a]pyridine-3-carboxamide] the value was 245 nM.
